The substances below were run on human RAGE (assay: psiCHECK on-target activity at 9 concentration points in HEK293A cells, dual-luciferase reporter (Example 8)). Conditions: psiCHECK system, Table 9.
Type: cell-based
From the text: As used herein, the term "inhibit" is used interchangeably with "decrease", "silence", "down-regulate", "repress", and other similar terms, and includes any level of inhibition. Inhibition can be assessed in terms of a decrease in the absolute or relative level of one or more of these variables relative to a control level. The control level can be any type of control level used in the art, such as a pre-dose baseline level or a level determined from an untreated or control (e.g., buffer-only control or inert agent control) treated subject, cell, or sample. […] The inhibition rate of target gene expression can be measured using a Dual-Glo® Luciferase Assay System: the Firefly chemiluminescence value (Fir) and the Renilla chemiluminescence value (Ren) are each read, and the relative value Ratio = Ren/Fir is calculated. In the present disclosure, the ratio of the remaining mRNA expression level (or residual activity%) = Ratio (RNAi agent-treated group)/Ratio (RNAi agent-free control group), and the inhibition rate (%) = 100% - remaining mRNA expression level (%).
RNAi agents were subjected to an in vitro molecular-level simulation of on-target activity screening in HEK293A cells using 9 concentration gradients.
HEK293A cells were cultured at 37 °C with 5% CO2 in a DMEM high-glucose culture medium containing 10% fetal bovine serum. 24 h prior to transfection, the HEK293A cells were seeded into a 96-well plate at a density of 1 × 10^4 cells per well, with each well containing 100 µL of the culture medium.
The cells were co-transfected with the RNAi agents and corresponding plasmids using Lipofectamine2000 (ThermoFisher, 11668019) according to the instructions, with 0.3 µL of Lipofectamine2000 used per well. The amount of plasmids for transfection was 20 ng per well. For on-target sequence plasmids, a total of 9 concentration points were set for the RNAi agents; the highest concentration point final concentration was 20 nM, and a 3-fold serial dilution was performed to obtain 20.0000 nM, 6.6667 nM, 2.2222 nM, 0.7407 nM, 0.2469 nM, 0.0823 nM, 0.0274 nM, 0.0091 nM, and 0.0030 nM. 24 h after transfection, the on-target levels were determined using a Dual-Luciferase Reporter Assay System (Promega, E2940). Table 9. The IC50 activity of RNAi agents in a psiCHECK system

Substance	IC50
TJR103635-TJ-16: RNAi agent containing targeting ligand I-14: SS strand SEQ ID NO: 23, AS strand SEQ ID NO: 49 (sense AGAGGAGGAGCGUGCAGAA; antisense UUCUGCACGCUCCUCCUCUUC; targeting ligand I-14 conjugated, modification pattern not given here)	0.636 nM
TJR103633-TJ-16: RNAi agent containing targeting ligand I-14: SS strand SEQ ID NO: 21, AS strand SEQ ID NO: 47 (sense CUGUCAGCAUCAGCAUCAA; antisense UUGAUGCUGAUGCUGACAGCA; targeting ligand I-14 conjugated, modification pattern not given here)	0.343 nM
TJR103638-TJ-16: RNAi agent containing targeting ligand I-14: SS strand SEQ ID NO: 26, AS strand SEQ ID NO: 52 (sense CCUUUUCUUUUUCCCUUGA; antisense UCAAGGGAAAAAGAAAAGGGA; targeting ligand I-14 conjugated, modification pattern not given here)	0.973 nM
TJR103637-TJ-16: RNAi agent containing targeting ligand I-14: SS strand SEQ ID NO: 25, AS strand SEQ ID NO: 51 (sense CUUUUCUUUUUCCCUUGAA; antisense UUCAAGGGAAAAAGAAAAGGG; targeting ligand I-14 conjugated, modification pattern not given here)	0.83 nM
TJR103636-TJ-16: RNAi agent containing targeting ligand I-14: SS strand SEQ ID NO: 24, AS strand SEQ ID NO: 50 (sense CAGUCGGAGCUAAUGGUGA; antisense UCACCAUUAGCUCCGACUGCA; targeting ligand I-14 conjugated, modification pattern not given here)	0.287 nM
TJR103634-TJ-16: RNAi agent containing targeting ligand I-14: SS strand SEQ ID NO: 22, AS strand SEQ ID NO: 48 (sense GACCAACUCUCUCCUGUAA; antisense UUACAGGAGAGAGUUGGUCUG; targeting ligand I-14 conjugated, modification pattern not given here)	0.378 nM
